Experiments:
HepG2 = assay: MTT cytotoxicity assay, HepG2; format: cell-based; conditions: Homo sapiens, HepG2; MTT, 72 h, mean ± SD; read-out: IC50 HepG2
Text: (§1) We selected four different cancer cell lines for antiproliferative screening in vitro, which we believed would provide sufficient data on the anticancer potential of the prepared harmirins (hepatocellular carcinoma—HepG2, colorectal adenocarcinoma, Dukes’ type C—SW620, colorectal carcinoma—HCT116, and breast adenocarcinoma—MCF-7). Additionally, we included one non-cancer cell line (embryonic kidney—HEK293T) to evaluate harmirins’ selectivity. The commonly used anticancer drug 5-FU and harmine were used as positive controls. Pre-screening was performed using 50 µM of the tested compound. Only compounds that led to more than 50% reduction in mitochondrial metabolic activity at 50 µM concentration were selected for further analysis. The selectivity index (SI) for each harmirin was calculated as a fractional ratio between the IC50 values for HEK293T and the cancer cell line MCF-7 or HCT116 since these two cell lines were the most susceptible to harmirins.
(§2) The experiments were carried out on five human cell lines purchased from American Type Culture Collection (ATCC, PO BOX 1549, manassas, VA 20108, USA): HepG2 (hepatocellular carcinoma; ATCC® HB-8065™), SW620 (colorectal adenocarcinoma; ATCC® CCL-227™), HCT116 (colorectal carcinoma ATCC® CCL-247™), MCF-7 (breast adenocarcinoma, ATCC® HTB-22™), and HEK293T (embryonic kidney cells; ATCC® CRL-3216™). All cell lines were cultured as monolayers and maintained in Dulbecco’s modified Eagle medium (DMEM) (Capricorn Scientific, USA), supplemented with 10% fetal bovine serum (FBS) (Capricorn Scientific, USA), 100 U/mL penicillin, and 100 µg/mL streptomycin (Capricorn Scientific, USA) in a humidified atmosphere with 5% CO2 at 37 °C. Cells were seeded in 96-well plates (Corning, Durham, NC, USA) at 5000–7000 cells per well (depending on the cell doubling time of a specific cell line) in 0.1 mL media and cultured for 24 h. The next day, the medium was aspirated, and cells were treated for 72 h. Only the compounds that led to more than a 50% reduction in mitochondrial metabolic activity at a concentration of 50 µM were selected for further analysis. The following concentrations of selected compounds were used: 25, 10, 5, and 1 µM. Working dilutions were freshly prepared on the day of the testing. A fresh growth medium was added to untreated control cells, which were defined as 100% viable. DMSO (0.13%) in DMEM was considered a negative control. 5-Fluorouracil (5-FU) and harmine were used as positive controls. At the end of treatment, media was removed, and cells were incubated for 1 h with 0.5 mg/mL MTT (Abcam, Cambridge, MA, USA) dissolved in serum-deprived DMEM. The absorbance was directly proportional to cell viability. The MTT-containing media was then removed, and 0.1 mL isopropanol was added per well to lyse cells and dissolve formazan. The optical density was measured at 570 nm using a microplate reader (VICTOR3, PerkinElmer). Each test point was performed in triplicate. The IC50 values (concentration required to decrease viability by 50%) were calculated by using nonlinear regression on the sigmoidal dose–response plots and are expressed as mean ± SD.

SW620 = assay: MTT cytotoxicity assay, SW620; format: cell-based; conditions: Homo sapiens, SW-620; MTT, 72 h, mean ± SD; read-out: IC50 SW620
Text: as §1, §2

HCT116 = assay: MTT cytotoxicity assay, HCT116; format: cell-based, human; conditions: for IC50: Homo sapiens, HCT-116, MTT, 72 h, mean ± SD, read-out: IC50 HCT116; for SI (HCT116): ratio IC50 HEK293T / IC50 HCT116
Text: as §1, §2

MCF-7 = assay: MTT cytotoxicity assay, MCF-7; format: cell-based, human; conditions: for IC50: Homo sapiens, MCF7, MTT, 72 h, mean ± SD, read-out: IC50 MCF-7; for SI (MCF-7): ratio IC50 HEK293T / IC50 MCF-7
Text: as §1, §2

HEK293T = assay: MTT cytotoxicity assay, HEK293T (non-cancer); format: cell-based, human; conditions: for IC50: Homo sapiens, HEK-293T, MTT, 72 h, mean ± SD, non-cancer cell line, read-out: IC50 Hek293T
Text: as §1, §2

In the case of Cc1ccc2oc(=O)cc(-n3cc(COc4ccc5[nH]c6c(C)nccc6c5c4)nn3)c2c1 [11b, 6-Methyl-4-(4-(((1-methyl-9H-pyrido[3,4-b]indol-6-yl)oxy)methyl)-1H-1,2,3-triazol-1-yl)-2H-chromen-2-one], the IC50 (HepG2) is reported as 13.6 ± 0.8 µM, the melting point is reported as 235 to 242 °C (dec.) and the IC50 (SW620) is reported as greater than 50 µM. The IC50 (HCT116) was greater than 50 µM, the “SI (HCT116)” value (HCT116) was less than 0.4 and the IC50 (MCF-7) was 10.4 ± 0.8 µM. For the same molecule, the “SI (MCF-7)” value (MCF-7) was 2 and the IC50 (HEK293T) was 21.3 ± 4.1 µM.

In the case of Cc1nccc2c1[nH]c1ccc(OCc3cn(-c4cc(=O)oc5ccc(F)cc45)nn3)cc12 [11d, 6-Fluoro-4-(4-(((1-methyl-9H-pyrido[3,4-b]indol-6-yl)oxy)methyl)-1H-1,2,3-triazol-1-yl)-2H-chromen-2-one], the IC50 (HepG2) is reported as 14.2 ± 0.4 µM, the melting point is reported as 224.5 to 225.5 °C (dec.) and the IC50 (SW620) is reported as 12.7 ± 1.8 µM. For the same molecule, the IC50 (HCT116) was 2.7 ± 0.4 µM, the IC50 (MCF-7) was 1.9 ± 0.2 µM and the “activity against MCF-7, fold stronger than 5-FU” value (MCF-7; compared with 5-FU IC50) was 9–13 fold. For the same molecule, the “activity against MCF-7, fold higher than harmine” value (MCF-7; compared with harmine IC50) was 5–7 fold and the IC50 (HEK293T) was 6.9 ± 0.6 µM.

In the case of Cc1nccc2c1[nH]c1cc(OCc3cn(-c4cc(=O)oc5ccc(F)cc45)nn3)ccc12 [12d, 6-Fluoro-4-(4-(((1-methyl-9H-pyrido[3,4-b]indol-7-yl)oxy)methyl)-1H-1,2,3-triazol-1-yl)-2H-chromen-2-one], the IC50 (HepG2) is reported as greater than 50 µM, the melting point is reported as 249 to 251 °C (dec.) and the IC50 (SW620) is reported as greater than 50 µM. The IC50 (HCT116) was greater than 50 µM, the “SI (HCT116)” value (HCT116) was greater than 1 and the IC50 (MCF-7) was greater than 50 µM. The “SI (MCF-7)” value (MCF-7) was greater than 1 and the IC50 (HEK293T) was greater than 50 µM.

For Cc1nc(Cn2cc(COc3cc(=O)oc4ccccc34)nn2)cc2c1[nH]c1ccccc12 [5a, 4-((1-((1-Methyl-9H-pyrido[3,4-b]indol-3-yl)methyl)-1H-1,2,3-triazol-4-yl)methoxy)-2H-chromen-2-one], the IC50 (HepG2) was 17.8 ± 1.8 µM, the melting point was 149.5 to 153.5 °C (dec.) and the IC50 (SW620) was greater than 50 µM. For the same molecule, the IC50 (HCT116) was greater than 50 µM, the “SI (HCT116)” value (HCT116) was less than 0.1 and the IC50 (MCF-7) was greater than 50 µM. The “SI (MCF-7)” value (MCF-7) was less than 0.1 and the IC50 (HEK293T) was 6.5 ± 1.6 µM.

For Cc1ccc2oc(=O)cc(OCc3cn(Cc4cc5c([nH]c6ccccc65)c(C)n4)nn3)c2c1 [5b, 6-Methyl-4-((1-((1-methyl-9H-pyrido[3,4-b]indol-3-yl)methyl)-1H-1,2,3-triazol-4-yl)methoxy)-2H-chromen-2-one], the IC50 (HepG2) was 16.8 ± 1.4 µM, the melting point was 263 to 267.5 °C (dec.) and the IC50 (SW620) was greater than 50 µM. For the same molecule, the IC50 (HCT116) was 3.2 ± 0.5 µM, the “SI (HCT116)” value (HCT116) was 8.6 and the IC50 (MCF-7) was greater than 50 µM. The “SI (MCF-7)” value (MCF-7) was less than 0.6, the IC50 (HEK293T) was 27.3 ± 2.1 µM and the “SIs (selectivity towards cancer cells in comparison to HEK293T)” value (HEK293T; cancer cell line not specified (MCF-7 or HCT116)) was greater than 7.2.
